The target in series [1] is T1, recombinant human calcitonin receptor (hCT-R) (Homo sapiens, UniProt P30988).
T1 construct: host or cells: human astrocytoma cell line 1321N1
T1 sequence (P30988 25-474): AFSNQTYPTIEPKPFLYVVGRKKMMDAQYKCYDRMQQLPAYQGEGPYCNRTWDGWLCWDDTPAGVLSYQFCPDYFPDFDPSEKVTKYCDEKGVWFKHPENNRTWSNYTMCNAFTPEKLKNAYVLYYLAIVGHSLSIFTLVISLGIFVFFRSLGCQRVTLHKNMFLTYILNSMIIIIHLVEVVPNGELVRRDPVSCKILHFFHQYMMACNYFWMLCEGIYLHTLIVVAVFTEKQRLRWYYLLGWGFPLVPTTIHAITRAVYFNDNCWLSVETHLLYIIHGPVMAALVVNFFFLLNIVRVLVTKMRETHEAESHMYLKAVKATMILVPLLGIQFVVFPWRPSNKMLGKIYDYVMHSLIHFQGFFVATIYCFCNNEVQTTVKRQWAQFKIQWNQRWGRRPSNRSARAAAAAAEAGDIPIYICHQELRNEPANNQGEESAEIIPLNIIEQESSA
Nature of the series: hCT-R cAMP assay (AlphaScreen) in 1321N1 cells. It counts as cell-based. The conditions noted are these: cAMP formation, 45 min stimulation. An excerpt: (§1) For the assessment of the in vitro activity of test peptides, cell lines expressing recombinant human calcitonin receptor (hCT-R) or recombinant human amylin 3 receptor (hAMYR3) in the background of the human astrocytoma cell line 1321N1 were purchased from DiscoveRx Corporation (Cat. No. 95-016106 and 95-0166C6). The hAMYR3 is a hetero-oligomer of the calcitonin receptor (Isoform 2; Gene ID 799) and RAMPS (Gene ID 10268) that forms when both genes are expressed in the same cell. The hCT-R cell line expresses only the recombinant human calcitonin receptor gene (Isoform 2; Gene ID 799). Upon activation of hCT-R or hAMYR3 by the test peptides the formation of cAMP is induced and was measured using the AlphaScreen® cAMP Assay kit from Perkin-Elmer (Cat. No. 6760635R).
(§2) Briefly, 1321N1 cells expressing hCT-R or hAMYR3 were seeded in 384-well microtiter plates (Falcon Optilux White, Cat.-No. 10448642) at 5,000 cells in […] growth medium per well (AssayComplete 1321N1 Cell Culture Kit, DiscoveRx Corp.), and incubated for 24 h at 37° C., 5% CO2. On the day of analysis growth medium was removed and the cells were stimulated by adding 10 μL of stimulation buffer (10 […], 0.1% BSA) containing increasing concentrations of test peptides, and incubation for 45 min at room temperature. The stimulation was stopped by adding 5.6 μL/well donor bead detection mix (5 mM Hepes pH7.4, 0.5% TWEEN 20, 0.1% BSA, 0.05 mg/mL donor beads, 62.5 nM biotinylated cAMP) and 4.5 μL/well acceptor bead solution (5 mM Hepes pH7.4, 0.5% TWEEN 20, 0.1% BSA, 0.05 mg/mL acceptor beads). After thorough mixing the plates were incubated in the dark for 1 h at room temperature and the cAMP content of the resulting cell lysates was estimated according to the AlphaScreen® cAMP Assay manufacturer's instructions. EC50 values were estimated by computer-aided curve fitting of results of at least 7 different compound concentrations.

The target of series [2] is T2, recombinant human amylin 3 receptor (hAMYR3) (Homo sapiens, UniProt O60896+P30988).
T2 construct: host or cells: human astrocytoma cell line 1321N1
T2 sequence (P30988 25-474): T1 sequence (P30988 25-474)
T2 sequence (O60896 24-148 partner): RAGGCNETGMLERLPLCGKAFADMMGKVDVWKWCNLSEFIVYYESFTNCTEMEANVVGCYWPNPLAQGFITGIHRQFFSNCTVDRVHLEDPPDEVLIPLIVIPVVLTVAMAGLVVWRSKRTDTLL
As to the kind of experiment: hAMYR3 cAMP assay (AlphaScreen) in 1321N1 cells. It counts as cell-based. The conditions noted are these: cAMP formation, 45 min stimulation.
Description: as §1, §2

The nature of series [3]: Assessment of chemical stability in 40 mM buffers at 40° C. (RP-HPLC). It counts as physicochemical. Particulars: 1 mg/mL. On the procedure:
Samples of each test peptide were dissolved in acetate buffer pH 4 and phosphate buffer pH 6 and 7 (all buffer 40 mM). The final peptide concentration was 1 mg/mL. Samples were placed in glass vials and incubated at 40° C. The samples were analyzed by RP-HPLC on a C8 column with gradient elution using a trifluoroacetic acid/acetonitrile/water eluent system. The area-percentage (area-%) of the main peak was determined by UV spectroscopy at 220 nm at each sampling time point.
The % degradation was calculated by subtracting the […].
The results of the chemical stability assessment after 3 days of incubation time are summarized as % degradation in Table 1 (below).
The results of the chemical stability assessment after 14 days of incubation time are summarized as % degradation in Table 2 (below).

The results in this text go back to US11382956B2, “Amylin analogues” (Zealand Pharma A/S, priority 2016, dated 2022).

Numbered stars: 1 amine (or outer) side, 2 acyl side, 3 side chain; on linkers, the order of the positions; unused ones are H or OH. Bridge positions count the residues as written; N and C are the ends. Square brackets hold non-standard residues; d marks the D form. Peptide text beside a SMILES is read from it. * marks the point of attachment. C20 diacid = O=C(O)CCCCCCCCCCCCCCCCCCC(=O)*; γGlu = O=C(O)[C@H](CCC(=O)[*:2])N[*:1]; Hyp = O=C(O)[C@@H]1C[C@@H](O)CN1; NMeI = CC[C@H](C)[C@H](NC)C(=O)O; Orn = NCCC[C@H](N)C(=O)O; Dab = NCC[C@H](N)C(=O)O; Dap = NC[C@H](N)C(=O)O; Sar = CNCC(=O)O

The term EC50 denotes the concentration that produces a half-maximal response.

Regarding `CC[C@H](C)[C@@H](C(=O)N[C@@H](CC(C)C)C(=O)N[C@@H](CO)C(=O)N[C@@H](CO)C(=O)N[C@H](C(=O)N[C@@H](CCC(=O)O)C(=O)N[C@H](C(=O)NCC(=O)N[C@@H](CO)C(=O)N[C@@H](CC(N)=O)C(=O)N[C@H](C(=O)N1C[C@H](O)C[C@H]1C(N)=O)[C@@H](C)O)C(C)C)[C@@H](C)O)N(C)C(=O)[C@H](C)NC(=O)CN(C)C(=O)[C@H](Cc1ccccc1)NC(=O)[C@H](CO)NC(=O)[C@H](CO)NC(=O)[C@H](CCCNC(=N)N)NC(=O)[C@H](CCC(N)=O)NC(=O)[C@H](CC(C)C)NC(=O)[C@H](Cc1ccccc1)NC(=O)[C@H](Cc1c[nH]cn1)NC(=O)[C@H](C)NC(=O)[C@H](CC(C)C)NC(=O)[C@H](CCCNC(=N)N)NC(=O)[C@H](CCC(=O)O)NC(=O)[C@@H](NC(=O)[C@H](C)NC(=O)[C@@H]1CNC(=O)C[C@H](NC(=O)[C@H](CCCNC(=N)N)NC(=O)CC[C@H](NC(=O)CCCCCCCCCCCCCCCCCCC(=O)O)C(=O)O)C(=O)NCC(=O)N[C@@H]([C@@H](C)O)C(=O)N[C@@H](C)C(=O)N[C@@H]([C@@H](C)O)C(=O)N1)[C@@H](C)O` [Compound 1, [19CD]-isoGlu-RD()GTAT-Dap()-ATERLAHFLQRSSF-Gly(Me)-A-Ile(Me)-LSSTEVGSNT-Hyp-NH2] ({C20 diacid-γGlu}-RDGTAT[Dap]ATERLAHFLQRSSF[Sar]A[NMeI]LSSTEVGSNT[Hyp]-NH2; lactam 2-7), the concentration for a half-maximal effect (EC50) in series [1] was 13600 pM; in series [2] it was 9300 pM.

As to `CC[C@H](C)[C@@H](C(=O)N[C@@H](CC(C)C)C(=O)N[C@@H](CO)C(=O)N[C@@H](CO)C(=O)N[C@H](C(=O)N[C@@H](CCC(=O)O)C(=O)N[C@H](C(=O)NCC(=O)N[C@@H](CO)C(=O)N[C@@H](CC(N)=O)C(=O)N[C@H](C(=O)N1C[C@H](O)C[C@H]1C(N)=O)[C@@H](C)O)C(C)C)[C@@H](C)O)N(C)C(=O)[C@H](C)NC(=O)CN(C)C(=O)[C@H](Cc1ccccc1)NC(=O)[C@H](CO)NC(=O)[C@H](CO)NC(=O)[C@H](CCCNC(=N)N)NC(=O)[C@H](CCC(N)=O)NC(=O)[C@H](CC(C)C)NC(=O)[C@H](Cc1ccccc1)NC(=O)[C@H](Cc1c[nH]cn1)NC(=O)[C@H](C)NC(=O)[C@H](CC(C)C)NC(=O)[C@H](CCCNC(=N)N)NC(=O)[C@H](CCC(=O)O)NC(=O)[C@@H](NC(=O)[C@H](C)NC(=O)[C@@H]1CCNC(=O)C[C@H](NC(=O)[C@H](CCCNC(=N)N)NC(=O)CC[C@H](NC(=O)CCCCCCCCCCCCCCCCCCC(=O)O)C(=O)O)C(=O)NCC(=O)N[C@@H]([C@@H](C)O)C(=O)N[C@@H](C)C(=O)N[C@@H]([C@@H](C)O)C(=O)N1)[C@@H](C)O` [Compound 2, [19CD]-isoGlu-RD()GTAT-Dab()-ATERLAHFLQRSSF-Gly(Me)-A-Ile(Me)-LSSTEVGSNT-Hyp-NH2] ({C20 diacid-γGlu}-RDGTAT[Dab]ATERLAHFLQRSSF[Sar]A[NMeI]LSSTEVGSNT[Hyp]-NH2; lactam 2-7), the values for the EC50 in series [1] and in series [2] were 105 pM and 32 pM, respectively.

For `CC[C@H](C)[C@@H](C(=O)N1CCC[C@H]1C(=O)N[C@@H](CO)C(=O)N[C@@H](CO)C(=O)N[C@H](C(=O)N[C@@H](CCC(=O)O)C(=O)N[C@H](C(=O)NCC(=O)N[C@@H](CO)C(=O)N[C@@H](CC(N)=O)C(=O)N[C@H](C(=O)N1C[C@H](O)C[C@H]1C(N)=O)[C@@H](C)O)C(C)C)[C@@H](C)O)N(C)C(=O)[C@H](C)NC(=O)CN(C)C(=O)[C@H](Cc1ccccc1)NC(=O)[C@H](CO)NC(=O)[C@H](CO)NC(=O)[C@H](CCCNC(=N)N)NC(=O)[C@H](CCC(N)=O)NC(=O)[C@H](CC(C)C)NC(=O)[C@H](Cc1ccccc1)NC(=O)[C@H](Cc1c[nH]cn1)NC(=O)[C@H](C)NC(=O)[C@H](CC(C)C)NC(=O)[C@H](CCCNC(=N)N)NC(=O)[C@H](CCC(=O)O)NC(=O)[C@@H](NC(=O)[C@H](C)NC(=O)[C@@H]1CCCNC(=O)C[C@H](NC(=O)[C@H](CCCNC(=N)N)NC(=O)CC[C@H](NC(=O)CCCCCCCCCCCCCCCCCCC(=O)O)C(=O)O)C(=O)NCC(=O)N[C@@H]([C@@H](C)O)C(=O)N[C@@H](C)C(=O)N[C@@H]([C@@H](C)O)C(=O)N1)[C@@H](C)O` [Compound 5, [19CD]-isoGlu-RD()GTAT-Orn()-ATERLAHFLQRSSF-Gly(Me)-A-Ile(Me)-PSSTEVGSNT-Hyp-NH2] ({C20 diacid-γGlu}-RDGTAT[Orn]ATERLAHFLQRSSF[Sar]A[NMeI]PSSTEVGSNT[Hyp]-NH2; lactam 2-7), the concentration for a half-maximal effect (EC50) came to 114 pM in series [1] and 32 pM in series [2].

Consider `CC[C@H](C)[C@@H](C(=O)N[C@@H](CC(C)C)C(=O)N[C@@H](CO)C(=O)N[C@@H](CO)C(=O)N[C@H](C(=O)N[C@@H](CCC(=O)O)C(=O)N[C@H](C(=O)NCC(=O)N[C@@H](CO)C(=O)N[C@@H](CC(N)=O)C(=O)N[C@H](C(=O)N1C[C@H](O)C[C@H]1C(N)=O)[C@@H](C)O)C(C)C)[C@@H](C)O)N(C)C(=O)[C@H](C)NC(=O)CN(C)C(=O)[C@H](Cc1ccccc1)NC(=O)[C@H](CCCNC(=N)N)NC(=O)[C@H](CCC(N)=O)NC(=O)[C@H](CC(C)C)NC(=O)[C@H](Cc1ccccc1)NC(=O)[C@H](Cc1c[nH]cn1)NC(=O)[C@H](C)NC(=O)[C@H](CC(C)C)NC(=O)[C@H](CCCNC(=N)N)NC(=O)[C@H](CCC(=O)O)NC(=O)[C@@H](NC(=O)[C@H](C)NC(=O)[C@@H]1CCCNC(=O)C[C@H](NC(=O)[C@H](CCCNC(=N)N)NC(=O)CC[C@H](NC(=O)CCCCCCCCCCCCCCCCCCC(=O)O)C(=O)O)C(=O)NCC(=O)N[C@@H]([C@@H](C)O)C(=O)N[C@@H](C)C(=O)N[C@@H]([C@@H](C)O)C(=O)N1)[C@@H](C)O` [Compound 6, [19CD]-isoGlu-RD()GTAT-Orn()-ATERLAHFLQRF-Gly(Me)-A-Ile(Me)-LSSTEVGSNT-Hyp-NH2] ({C20 diacid-γGlu}-RDGTAT[Orn]ATERLAHFLQRF[Sar]A[NMeI]LSSTEVGSNT[Hyp]-NH2; lactam 2-7), for which the half-maximal effective concentration (EC50) in series [1] turned out to be 327 pM; in series [2], 11 pM.

As for “N-α-[(S)-4-carboxy-4-(19-carboxynonadecanoylamino)butyryl]-[Arg1,Glu14,His17,Pro37]-pramlintide [NN96, reference compound]”, the “% degradation after 14 days at 40° C. pH4 acetate” value in series [3] (acetate buffer pH 4, 14 days) is recorded as 3.0%. Further, in series [3] (phosphate buffer pH 6, 14 days), the “% degradation after 14 days at 40° C. pH6 phosphate” value is reported as 10.1%. In addition, in series [3] (phosphate buffer pH 7, 14 days), the “% degradation after 14 days at 40° C. pH7 phosphate” value came out at 33.2%.
